Results as given in ChEMBL document CHEMBL1130490, “The Role of 4-phosphonodifluoromethyl- and 4-phosphono-phenylalanine in the selectivity and cellular uptake of SH2 domain ligands” (Bioorg Med Chem Lett, 1997).
Where a SMILES comes first, the peptide text is derived from it. [ ]: non-standard residue; d: D form. pY = N[C@@H](Cc1ccc(OP(=O)(O)O)cc1)C(=O)O

Assays:
Mus musculus = organism: Mus musculus; test: Uptake rate for compound into Balbc3T3 cells normalized to 100 uM was measured; type: functional
[1] = molecular target: T1, Tyrosine-protein kinase ABL1 (Homo sapiens, UniProt P00519); test: Inhibition of [35S]-labeled SH2-GST Abl binding to the phospho-PDGF receptor intracellular domain
T1 sequence (P00519 whole entry, the tested form may be a part): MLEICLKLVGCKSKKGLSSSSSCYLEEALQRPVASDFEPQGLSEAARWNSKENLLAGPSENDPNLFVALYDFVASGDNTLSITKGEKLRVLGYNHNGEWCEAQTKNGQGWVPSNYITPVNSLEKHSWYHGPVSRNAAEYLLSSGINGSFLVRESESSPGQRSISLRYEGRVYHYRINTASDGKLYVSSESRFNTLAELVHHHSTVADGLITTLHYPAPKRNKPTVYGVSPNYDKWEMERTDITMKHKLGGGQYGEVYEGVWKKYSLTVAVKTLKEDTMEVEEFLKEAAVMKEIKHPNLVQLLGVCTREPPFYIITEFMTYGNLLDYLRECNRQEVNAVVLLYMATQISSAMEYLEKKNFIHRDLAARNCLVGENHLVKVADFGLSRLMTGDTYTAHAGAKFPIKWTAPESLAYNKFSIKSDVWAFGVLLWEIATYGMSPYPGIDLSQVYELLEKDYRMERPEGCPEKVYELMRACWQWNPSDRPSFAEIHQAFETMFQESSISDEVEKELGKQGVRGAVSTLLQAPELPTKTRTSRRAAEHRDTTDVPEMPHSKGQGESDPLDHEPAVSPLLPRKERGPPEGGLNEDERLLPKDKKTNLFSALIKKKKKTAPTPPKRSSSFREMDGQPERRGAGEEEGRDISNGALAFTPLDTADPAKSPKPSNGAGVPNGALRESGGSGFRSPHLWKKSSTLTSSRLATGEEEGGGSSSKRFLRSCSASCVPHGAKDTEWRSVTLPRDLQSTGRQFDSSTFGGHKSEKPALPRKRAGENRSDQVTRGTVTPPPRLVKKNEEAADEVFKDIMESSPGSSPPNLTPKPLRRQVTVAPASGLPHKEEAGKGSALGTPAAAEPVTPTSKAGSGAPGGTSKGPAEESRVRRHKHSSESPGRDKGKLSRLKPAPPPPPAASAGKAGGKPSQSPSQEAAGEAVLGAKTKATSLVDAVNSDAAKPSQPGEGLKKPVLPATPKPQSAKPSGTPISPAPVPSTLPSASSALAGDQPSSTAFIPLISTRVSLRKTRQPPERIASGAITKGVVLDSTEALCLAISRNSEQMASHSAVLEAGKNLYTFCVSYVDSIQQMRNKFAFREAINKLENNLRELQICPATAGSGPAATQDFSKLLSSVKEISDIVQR

[2] = molecular target: T1, Tyrosine-protein kinase ABL1; test: Radioligand displacement assay for the binding of [125I]Glu-Pro-Gln-pTyr-Glu-Glu-Ile-Pro-Ile-Tyr-Leu to ABL SH2 domain

`CCOP(=O)(OCC)C(F)(F)c1ccc(C[C@H](NC(C)=O)C(=O)N[C@@H](CCC(=O)O)C(=O)N(C)CCCC2CCCCC2)cc1` was tested, and the Uptake rate (nM min-1 cm**-2) (Mus musculus) was over 0.002.

For `CCOP(=O)(OCC)c1ccc(C[C@H](NC(C)=O)C(=O)N[C@@H](CC)C(=O)N(C)CCCC2CCCCC2)cc1`, the Uptake rate (nM min-1 cm**-2) (Mus musculus) was 0.092.

`CC[C@H](C)[C@H](NC(=O)[C@H](CCC(=O)O)NC(=O)[C@H](CCC(=O)O)NC(=O)[C@H](Cc1ccc(OP(=O)(O)O)cc1)NC(C)=O)C(=O)N[C@@H](CCC(=O)O)C(=O)O` (Ac-[pY]EEIE-OH) gave an IC50 [1] of 15 µM and an IC50 [2] of 7.9 µM.

`CC[C@H](NC(=O)[C@H](Cc1ccc(P(=O)(OCOC(=O)C(C)(C)C)OCOC(=O)C(C)(C)C)cc1)NC(C)=O)C(=O)N(C)CCCC1CCCCC1` was tested, and the Uptake rate (nM min-1 cm**-2) (Mus musculus) was 6.6.

`CC[C@H](NC(=O)[C@H](Cc1ccc(C(F)(F)P(=O)(O)OCOC(=O)C(C)(C)C)cc1)NC(C)=O)C(=O)N(C)CCCC1CCCCC1` gave an Uptake rate (nM min-1 cm**-2) (Mus musculus) of 0.01.

In the case of `CCOP(=O)(OCC)C(F)(F)c1ccc(C[C@H](NC(C)=O)C(=O)N[C@@H](CCC(=O)OC(C)(C)C)C(=O)N(C)CCCC2CCCCC2)cc1`, the Uptake rate (nM min-1 cm**-2) (Mus musculus) is reported as 3.2.
